Results from PubChem BioAssay AID1745844 (Carcinogenic Potency Database (CPDB), 2022).
Activity calls are given as the source filed them. The rule behind the calls is not given here.

Test system: rodent lifetime carcinogenesis bioassay, tumor incidence TD50
Assay: chronic cancer bioassays in animals – CPDB, compiled studies (AID 1745844)
[1] = mouse, strain B6C3F1, females, in feed, site: liver, lesion: hepatocellular adenoma + hepatocellular carcinoma + neoplastic nodule, dosed 103 weeks, study length 105 weeks

O=P(O)(O)O
TD50 (mouse, strain B6C3F1, females, by gavage, site: any site (literature study), lesion: several types, types named in the paper, dosed 103 weeks, study length 105 weeks): 958 mg/kg/day | TD50 (mouse, strain B6C3F1, females, by gavage, site: liver, lesion: hepatocellular adenoma + hepatocellular carcinoma + neoplastic nodule, dosed 103 weeks, study length 105 weeks): 3710 mg/kg/day | TD50 (mouse, strain B6C3F1, females, by gavage, site: subcutaneous tissue, lesion: sarcoma, NOS, dosed 103 weeks, study length 105 weeks): 1490 mg/kg/day (inactive) | TD50 (mouse, strain B6C3F1, males, by gavage, site: adrenal gland, lesion: cortical adenoma, dosed 103 weeks, study length 104 weeks): 5840 mg/kg/day (inactive) | TD50 (mouse, strain B6C3F1, males, by gavage, site: any site (literature study), lesion: several types, types named in the paper, dosed 103 weeks, study length 104 weeks): 11600 mg/kg/day | TD50 (mouse, strain B6C3F1, males, by gavage, site: liver, lesion: hepatocellular adenoma + hepatocellular carcinoma + neoplastic nodule, dosed 103 weeks, study length 104 weeks): 2950 mg/kg/day | TD50 (mouse, strain B6C3F1, males, by gavage, site: lung, lesion: alveolar/bronchiolar adenoma + alveolar/bronchiolar carcinoma, dosed 103 weeks, study length 104 weeks): 19900 mg/kg/day | TD50 (mouse, strain B6C3F1, males, by gavage, site: multiple organs, lesion: malignant lymphoma, lymphocytic type, dosed 103 weeks, study length 104 weeks): 8420 mg/kg/day

[CH3][Hg][Cl]
TD50 (mouse, strain B6C3F1, females, in feed, site: kidney, lesion: renal-cell adenoma, dosed 104 weeks, study length 104 weeks): 65.8 mg/kg/day | TD50 (mouse, strain B6C3F1, males, in feed, site: kidney, lesion: renal-cell adenoma, dosed 104 weeks, study length 104 weeks): 9.83 mg/kg/day | TD50 (mouse, strain B6C3F1, males, in feed, site: kidney, lesion: renal-cell carcinoma, dosed 104 weeks, study length 104 weeks): 4.28 mg/kg/day | TD50 (mouse, strain B6C3F1, males, in feed, site: kidney, lesion: several types, types named in the paper, dosed 104 weeks, study length 104 weeks): 3.19 mg/kg/day | carcinogen call (mouse, strain Charles River CD1, females, in drinking water, site: any site (literature study), lesion: malignant tumor, dosed 143 weeks, study length 151 weeks): negative (inactive) | TD50 (mouse, strain Charles River CD1, females, in drinking water, site: any site (literature study), lesion: several types, types named in the paper, dosed 143 weeks, study length 151 weeks): 2.13 mg/kg/day (inactive) | carcinogen call (mouse, strain Charles River CD1, females, in drinking water, site: lung, lesion: one or several types, types not named, dosed 143 weeks, study length 151 weeks): negative (inactive) | TD50 (mouse, strain Charles River CD1, males, in drinking water, site: any site (literature study), lesion: malignant tumor, dosed 135 weeks, study length 159 weeks): 9.64 mg/kg/day (inactive) | TD50 (mouse, strain Charles River CD1, males, in drinking water, site: any site (literature study), lesion: several types, types named in the paper, dosed 135 weeks, study length 159 weeks): 5.63 mg/kg/day (inactive) | carcinogen call (mouse, strain Charles River CD1, males, in drinking water, site: lung, lesion: one or several types, types not named, dosed 135 weeks, study length 159 weeks): negative (inactive) | carcinogen call (mouse, strain ICR, females, in feed, site: kidney, lesion: adenoma, dosed 80 weeks, study length 80 weeks): negative (inactive) | carcinogen call (mouse, strain ICR, females, in feed, site: kidney, lesion: one or several types, types not named, dosed 52 weeks, study length 52 weeks): negative (inactive) | carcinogen call (mouse, strain ICR, females, in feed, site: kidney, lesion: one or several types, types not named, dosed 78 weeks, study length 78 weeks): negative (inactive) | carcinogen call (mouse, strain ICR, females, in feed, site: kidney, lesion: one or several types, types not named, dosed 104 weeks, study length 104 weeks): negative (inactive) | TD50 (mouse, strain ICR, females, in feed, site: liver, lesion: hemangioma, dosed 80 weeks, study length 80 weeks): 26.1 mg/kg/day (inactive) | carcinogen call (mouse, strain ICR, females, in feed, site: liver, lesion: hepatocellular adenoma, dosed 80 weeks, study length 80 weeks): negative (inactive) | carcinogen call (mouse, strain ICR, females, in feed, site: liver, lesion: hepatocellular carcinoma, dosed 80 weeks, study length 80 weeks): negative (inactive) | TD50 (mouse, strain ICR, females, in feed, site: lung, lesion: adenocarcinoma, dosed 80 weeks, study length 80 weeks): 11.6 mg/kg/day (inactive) | carcinogen call (mouse, strain ICR, females, in feed, site: lung, lesion: adenoma, dosed 80 weeks, study length 80 weeks): negative (inactive) | TD50 (mouse, strain ICR, males, in feed, site: kidney, lesion: adenocarcinoma, dosed 78 weeks, study length 78 weeks): 3.2 mg/kg/day | TD50 (mouse, strain ICR, males, in feed, site: kidney, lesion: adenocarcinoma, dosed 80 weeks, study length 80 weeks): 1.48 mg/kg/day | TD50 (mouse, strain ICR, males, in feed, site: kidney, lesion: adenocarcinoma, dosed 102 weeks, study length 104 weeks): 1.88 mg/kg/day | TD50 (mouse, strain ICR, males, in feed, site: kidney, lesion: adenoma, dosed 80 weeks, study length 80 weeks): 24.1 mg/kg/day | TD50 (mouse, strain ICR, males, in feed, site: kidney, lesion: several types, types named in the paper, dosed 78 weeks, study length 78 weeks): 0.896 mg/kg/day | TD50 (mouse, strain ICR, males, in feed, site: kidney, lesion: several types, types named in the paper, dosed 80 weeks, study length 80 weeks): 1.36 mg/kg/day | TD50 (mouse, strain ICR, males, in feed, site: kidney, lesion: several types, types named in the paper, dosed 102 weeks, study length 104 weeks): 1.69 mg/kg/day | TD50 (mouse, strain ICR, males, in feed, site: lung, lesion: adenocarcinoma, dosed 80 weeks, study length 80 weeks): 5.1 mg/kg/day | TD50 (rat, strain Sprague-Dawley, females, in feed, site: kidney, lesion: adenoma, dosed 130 weeks, study length 130 weeks): 15.7 mg/kg/day (inactive) | carcinogen call (rat, strain Sprague-Dawley, females, in feed, site: liver, lesion: one or several types, types not named, dosed 52 weeks, study length 52 weeks): negative (inactive) | carcinogen call (rat, strain Sprague-Dawley, females, in feed, site: liver, lesion: one or several types, types not named, dosed 78 weeks, study length 78 weeks): negative (inactive) | carcinogen call (rat, strain Sprague-Dawley, females, in feed, site: liver, lesion: one or several types, types not named, dosed 130 weeks, study length 130 weeks): negative (inactive) | carcinogen call (rat, strain Sprague-Dawley, males, in feed, site: liver, lesion: one or several types, types not named, dosed 52 weeks, study length 52 weeks): negative (inactive) | carcinogen call (rat, strain Sprague-Dawley, males, in feed, site: liver, lesion: one or several types, types not named, dosed 78 weeks, study length 78 weeks): negative (inactive) | carcinogen call (rat, strain Sprague-Dawley, males, in feed, site: liver, lesion: one or several types, types not named, dosed 130 weeks, study length 130 weeks): negative (inactive) | carcinogen call (rat, strain Wistar, females, in feed, site: liver, lesion: one or several types, types not named, dosed 104 weeks, study length 104 weeks): negative (inactive) | carcinogen call (rat, strain Wistar, males, in feed, site: liver, lesion: one or several types, types not named, dosed 104 weeks, study length 104 weeks): negative (inactive)

CCCOC(=O)c1cc(O)c(O)c(O)c1
TD50 [1]: 21400 mg/kg/day | TD50 (mouse, strain B6C3F1, females, in feed, site: liver, lesion: hepatocellular adenoma, dosed 103 weeks, study length 105 weeks): 8260 mg/kg/day (inactive) | TD50 (mouse, strain B6C3F1, females, in feed, site: lung, lesion: alveolar/bronchiolar adenoma + alveolar/bronchiolar carcinoma, dosed 103 weeks, study length 105 weeks): 44300 mg/kg/day | TD50 (mouse, strain B6C3F1, males, in feed, site: all sites, lesion: lymphoma, histiocytic type, dosed 103 weeks, study length 105 weeks): 15100 mg/kg/day | TD50 (mouse, strain B6C3F1, males, in feed, site: all sites, lesion: lymphoma, dosed 103 weeks, study length 105 weeks): 6540 mg/kg/day (inactive) | TD50 (mouse, strain B6C3F1, males, in feed, site: all sites, lesion: malignant lymphoma, dosed 103 weeks, study length 105 weeks): 12100 mg/kg/day | TD50 (mouse, strain B6C3F1, males, in feed, site: any site (literature study), lesion: several types, types named in the paper, dosed 103 weeks, study length 105 weeks): 3640 mg/kg/day | TD50 (mouse, strain B6C3F1, males, in feed, site: lung, lesion: alveolar/bronchiolar adenoma + alveolar/bronchiolar carcinoma, dosed 103 weeks, study length 105 weeks): 55600 mg/kg/day | carcinogen call (rat, strain F344/DuCrj, males, in feed, site: esophagus, lesion: one or several types, types not named, dosed 52 weeks, study length 52 weeks): negative (inactive) | carcinogen call (rat, strain F344/DuCrj, males, in feed, site: forestomach, lesion: one or several types, types not named, dosed 52 weeks, study length 52 weeks): negative (inactive) | carcinogen call (rat, strain F344/DuCrj, males, in feed, site: liver, lesion: one or several types, types not named, dosed 52 weeks, study length 52 weeks): negative (inactive) | TD50 (rat, strain Fischer 344, females, in feed, site: mammary gland, lesion: adenoma, dosed 103 weeks, study length 105 weeks): 8080 mg/kg/day (inactive) | TD50 (rat, strain Fischer 344, males, in feed, site: adrenal gland, lesion: pheochromocytoma + pheochromocytoma, malignant, dosed 103 weeks, study length 105 weeks): 613 mg/kg/day | TD50 (rat, strain Fischer 344, males, in feed, site: adrenal gland, lesion: pheochromocytoma, dosed 103 weeks, study length 105 weeks): 613 mg/kg/day | TD50 (rat, strain Fischer 344, males, in feed, site: pancreatic islets, lesion: islet-cell adenoma + islet-cell carcinoma, dosed 103 weeks, study length 105 weeks): 840 mg/kg/day | TD50 (rat, strain Fischer 344, males, in feed, site: pancreatic islets, lesion: islet-cell adenoma, dosed 103 weeks, study length 105 weeks): 749 mg/kg/day (inactive) | TD50 (rat, strain Fischer 344, males, in feed, site: preputial gland, lesion: adenocarcinoma + adenoma + carcinoma, dosed 103 weeks, study length 105 weeks): 1040 mg/kg/day | TD50 (rat, strain Fischer 344, males, in feed, site: thyroid gland, lesion: follicular-cell adenoma + follicular-cell carcinoma, dosed 103 weeks, study length 105 weeks): 6870 mg/kg/day

CCCCC(CC)COC(=O)CCCCC(=O)OCC(CC)CCCC (configuration not stated)
TD50 [1]: 3840 mg/kg/day | TD50 (mouse, strain B6C3F1, females, in feed, site: liver, lesion: hepatocellular adenoma + hepatocellular carcinoma, dosed 103 weeks, study length 105 weeks): 3840 mg/kg/day | TD50 (mouse, strain B6C3F1, females, in feed, site: liver, lesion: hepatocellular carcinoma, dosed 103 weeks, study length 105 weeks): 3050 mg/kg/day | TD50 (mouse, strain B6C3F1, males, in feed, site: liver, lesion: hepatocellular adenoma + hepatocellular carcinoma + neoplastic nodule, dosed 103 weeks, study length 104 weeks): 5330 mg/kg/day | TD50 (mouse, strain B6C3F1, males, in feed, site: liver, lesion: hepatocellular adenoma + hepatocellular carcinoma, dosed 103 weeks, study length 104 weeks): 5330 mg/kg/day | TD50 (mouse, strain B6C3F1, males, in feed, site: liver, lesion: hepatocellular adenoma, dosed 103 weeks, study length 104 weeks): 9040 mg/kg/day | TD50 (mouse, strain B6C3F1, males, in feed, site: lung, lesion: alveolar/bronchiolar adenoma + alveolar/bronchiolar carcinoma, dosed 103 weeks, study length 104 weeks): 11700 mg/kg/day | carcinogen call (rat, strain Fischer 344, females, in feed, site: any site (literature study), lesion: several types, types named in the paper, dosed 103 weeks, study length 105 weeks): negative (inactive) | TD50 (rat, strain Fischer 344, females, in feed, site: liver, lesion: hepatocellular adenoma + hepatocellular carcinoma + neoplastic nodule, dosed 103 weeks, study length 105 weeks): 14500 mg/kg/day | carcinogen call (rat, strain Fischer 344, males, in feed, site: any site (literature study), lesion: several types, types named in the paper, dosed 103 weeks, study length 104 weeks): negative (inactive)
